Laboratory results from US4791215A, “Derivatives of glutamic acid and aspartic acid” (priority 1984, dated 1988).

Legend:
morphine analgesia = experiment: Increase in analgesia of morphine, Tail Flick Test (Experiment 1); assay type: in vivo, rats; details: for percentage variation of latency of pain sensation / M (10-90) ± SE, mean percentage variation of latency: compound 10 mg/kg i.p. + morphine 2 mg/kg; for M (10-90) ± SE, mean percentage variation of latency: mean 10-90 min; for Power ratio with respect to morphine alone: rat, in vivo
Method in brief: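 Tail-flick latency to 75 °C radiant heat, capped at 8 s, measured in male non-fasted rats weighing 150-200 g. Percentage change per animal derived from pre-treatment baseline versus post-drug readings at 10-90 min (10, 20, 30, 45, 60, 90 min).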

[1] = Body weight on daily oral dosing; assay type: in vivo, rats
Description: (§1) In order to check the hypothesis that the anti-CCK activity shown by most of the compounds in question may be used to advantage in the treatment of anorexia in man or as an appetite stimulant for farm animals, the following experiment was carried out:
(§2) Male rats having a weight of about 160 g, divided into groups of 10 animals, were used. […]
(§3) The drug, in the form of the sodium salt, was dissolved in water and administered in a volume of 10 ml of H2 O/kg while the control group received an equal volume of the solvent alone.
(§4) The following tables give the average values of the food consumption and the average weight of each group of animals, calculated weekly as well as the Student's t value calculated from the various treated groups and the group of control animals.

[2] = Food consumption on daily oral dosing; assay type: in vivo, rats
Description: as §1, §2, §3, §4

[3] = test system: CCK-8 induced contraction of rabbit colon; experiment: Anti-spastic activity in the colon stimulated by CCK-8; assay type: in vivo
Description: A much more specific anti-spastic activity, that is adhering much more to a physiological situation, is illustrated by the following experiment.
The abdomen of an anaesthetised rabbit was cut open to show the transverse colon. A small balloon full of water was inserted at the point established and connected to a pressure transducer by means of a polythene cannula filled with water.
The optimum sensitivity was fixed in relation to the physiological conditions and the products were administered through the femoral vein. Contractions were induced by the administration of 100 ng/kg of CCK.

biliary flow = experiment: Biliary flow (choleretic activity); assay type: in vivo, rat
Method in brief: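 In urethane-anaesthetised rats with bile duct cannulated, bile collected 1 h before and 2 h after intravenous compound dosing. Samples weighed at 30 minute intervals; 0.5 ml physiological solution given every 30 minutes to prevent dehydration.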

[4] = test system: activity of analgesic drugs; experiment: Hot-plate test, potentiation of analgesic drugs (Experiment 2); assay type: in vivo, rats
Method in brief: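 Male rats of about 150 g, not fasted, five per group, were placed on a plate held at 55°±1° C. Licking or jumping latency was recorded before and at 10–90 min after dosing, with a 30 s cut-off. A positive response meant at least a doubling of reaction time, reported as positives/treated.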

CCCCCN(CCCCC)C(=O)C(CCC(=O)O)NC(=O)c1ccc(Cl)c(Cl)c1 (centres unmarked) [Compound C-7]
percentage variation of latency of pain sensation (morphine analgesia; 10'): 67.9 ± 14.3% | percentage variation of latency of pain sensation (morphine analgesia; 20'): 71.5 ± 17.6% | percentage variation of latency of pain sensation (morphine analgesia; 30'): 79.4% | percentage variation of latency of pain sensation (morphine analgesia; 45'): 84.6 ± 10.5% | percentage variation of latency of pain sensation (morphine analgesia; 60'): 92.9 ± 4.1% | percentage variation of latency of pain sensation (morphine analgesia; 90'): 72.6 ± 7.0% | M (10-90) ± SE, mean percentage variation of latency (morphine analgesia): 78.2 ± 9.4% | Power ratio with respect to morphine alone (morphine analgesia): 2.62 | body weight ([1]; 0.3 mg/kg os, time 0): 162.1 ± 2.48 g | body weight ([1]; 0.3 mg/kg os, week 1): 201.3 ± 2.7 g | body weight ([1]; 0.3 mg/kg os, week 2): 254.5 ± 2.66 g | body weight ([1]; 0.3 mg/kg os, week 3): 315.2 ± 2.72 g | body weight ([1]; 1 mg/kg os, time 0): 166.0 ± 1.56 g | body weight ([1]; 1 mg/kg os, week 1): 214.7 ± 1.93 g | body weight ([1]; 1 mg/kg os, week 2): 267.5 ± 2.6 g | body weight ([1]; 1 mg/kg os, week 3): 319.8 ± 2.49 g | body weight ([1]; 3 mg/kg os, time 0): 166.6 ± 1.73 g | body weight ([1]; 3 mg/kg os, week 1): 227.9 ± 1.65 g | body weight ([1]; 3 mg/kg os, week 2): 290.9 ± 2.6 g | body weight ([1]; 3 mg/kg os, week 3): 349.5 ± 2.82 g | weight increase versus control animals ([1]; 0.3, 1 and 3 mg/kg os): significantly greater weight increase than the control animals | increase in food consumption compared with controls ([2]; 0.3 mg/kg daily): about 15% | food consumption ([2]; 0.3 mg/kg os, week 1): 176.4 ± 3.70 g/week | food consumption ([2]; 0.3 mg/kg os, week 2): 216.8 ± 4.71 g/week | food consumption ([2]; 0.3 mg/kg os, week 3): 239.3 ± 4.07 g/week | food consumption ([2]; 1 mg/kg os, week 1): 199.6 ± 3.88 g/week | food consumption ([2]; 1 mg/kg os, week 2): 230.5 ± 3.09 g/week | food consumption ([2]; 1 mg/kg os, week 3): 261.4 ± 4.24 g/week | food consumption ([2]; 3 mg/kg os, week 1): 198.4 ± 3.66 g/week | food consumption ([2]; 3 mg/kg os, week 2): 244.8 ± 3.09 g/week | food consumption ([2]; 3 mg/kg os, week 3): 268.8 ± 4.86 g/week | increase in food consumption compared with controls ([2]; other doses tested (1, 3 mg/kg daily)): about 30% | effect on CCK-8 stimulated colon ([3]; 3 mg/kg iv, single experiments): -100.0 | ED50 ([3]; Oryctolagus cuniculus, iv, CCK 100 ng/kg): 1.11 mg/kg

CCCN(CCC)C(=O)C(CCC(=O)O)NC(=O)c1ccc(C)c(C)c1 (centres unmarked) [Compound C-30]
percentage variation of latency of pain sensation (morphine analgesia; 10'): 69.9 ± 16% | percentage variation of latency of pain sensation (morphine analgesia; 20'): 100.0 ± 0% | percentage variation of latency of pain sensation (morphine analgesia; 30'): 95.2 ± 4.8% | percentage variation of latency of pain sensation (morphine analgesia; 45'): 91.8 ± 8% | percentage variation of latency of pain sensation (morphine analgesia; 60'): 100% | percentage variation of latency of pain sensation (morphine analgesia; 90'): 100.0 ± 0% | M (10-90) ± SE, mean percentage variation of latency (morphine analgesia): 92.8 ± 12% | Power ratio with respect to morphine alone (morphine analgesia): 3.11 | % increase in biliary flow with respect to controls (biliary flow; 12.5 mg/kg i.v.): +33.7% | % increase in biliary flow with respect to controls (biliary flow; 25 mg/kg i.v.): +60.2% | % increase in biliary flow with respect to controls (biliary flow; 50 mg/kg i.v.): +121.2% | % increase in biliary flow with respect to controls (biliary flow; 100 mg/kg i.v.): +197.8% | ED50 (biliary flow; Rattus norvegicus, iv, average over 2 hours, read-out: ED50 (dose causing 50% increase in biliary flow)): 18.5 mg/kg | body weight ([1]; 3 mg/kg os, time 0): 270.8 ± 8.3 g | body weight ([1]; 3 mg/kg os, week 1): 310.2 ± 7.01 g | body weight ([1]; 3 mg/kg os, week 2): 380.5 ± 6.5 g | body weight ([1]; 3 mg/kg os, week 3): 409.7 ± 2.99 g | body weight ([1]; 3 mg/kg os, week 4): 437.3 ± 55 g | body weight ([1]; 10 mg/kg os, time 0): 271.4 ± 9.3 g | body weight ([1]; 10 mg/kg os, week 1): 332.9 ± 5.7 g | body weight ([1]; 10 mg/kg os, week 2): 383.2 ± 6.5 g | body weight ([1]; 10 mg/kg os, week 3): 439.1 ± 4.3 g | body weight ([1]; 10 mg/kg os, week 4): 470.5 ± 6.5 g | body weight ([1]; 30 mg/kg os, time 0): 267.9 ± 7.7 g | body weight ([1]; 30 mg/kg os, week 1): 315.7 ± 7.4 g | body weight ([1]; 30 mg/kg os, week 2): 371.9 ± 7.9 g | body weight ([1]; 30 mg/kg os, week 3): 437.1 ± 5.2 g | body weight ([1]; 30 mg/kg os, week 4): 488.1 ± 6.4 g | food consumption ([2]; 3 mg/kg os, week 1): 193.7 ± 3.58 g/week | food consumption ([2]; 3 mg/kg os, week 2): 233.2 ± 4.56 g/week | food consumption ([2]; 3 mg/kg os, week 3): 187.1 ± 8.40 g/week | food consumption ([2]; 3 mg/kg os, week 4): 204.0 ± 3.63 g/week | food consumption ([2]; 10 mg/kg os, week 1): 219.8 ± 5.62 g/week | food consumption ([2]; 10 mg/kg os, week 2): 264.3 ± 5.61 g/week | food consumption ([2]; 10 mg/kg os, week 3): 234.5 ± 5.05 g/week | food consumption ([2]; 10 mg/kg os, week 4): 234.6 ± 3.99 g/week | food consumption ([2]; 30 mg/kg os, week 1): 233.7 ± 5.45 g/week | food consumption ([2]; 30 mg/kg os, week 2): 267.9 ± 4.92 g/week | food consumption ([2]; 30 mg/kg os, week 3): 247.0 ± 5.19 g/week | food consumption ([2]; 30 mg/kg os, week 4): 244.5 ± 4.06 g/week | TOTAL positives ([4]; oxyphenylbutazone 50 + compound 3 mg/kg i.p.): 11 x/30 | positive responses over number treated ([4]; oxyphenylbutazone 50 + compound 3 mg/kg i.p., 10'): 1/5 | positive responses over number treated ([4]; oxyphenylbutazone 50 + compound 3 mg/kg i.p., 20'): 1/5 | positive responses over number treated ([4]; oxyphenylbutazone 50 + compound 3 mg/kg i.p., 30'): 3/5 | positive responses over number treated ([4]; oxyphenylbutazone 50 + compound 3 mg/kg i.p., 45'): 2/5 | positive responses over number treated ([4]; oxyphenylbutazone 50 + compound 3 mg/kg i.p., 60'): 2/5 | positive responses over number treated ([4]; oxyphenylbutazone 50 + compound 3 mg/kg i.p., 90'): 2/5 | TOTAL positives ([4]; oxyphenylbutazone 50 + compound 10 mg/kg i.p.): 12 x/30 | positive responses over number treated ([4]; oxyphenylbutazone 50 + compound 10 mg/kg i.p., 10'): 1/5 | positive responses over number treated ([4]; oxyphenylbutazone 50 + compound 10 mg/kg i.p., 20'): 2/5 | positive responses over number treated ([4]; oxyphenylbutazone 50 + compound 10 mg/kg i.p., 30'): 2/5 | positive responses over number treated ([4]; oxyphenylbutazone 50 + compound 10 mg/kg i.p., 45'): 3/5 | positive responses over number treated ([4]; oxyphenylbutazone 50 + compound 10 mg/kg i.p., 60'): 3/5 | positive responses over number treated ([4]; oxyphenylbutazone 50 + compound 10 mg/kg i.p., 90'): 2/5 | TOTAL positives ([4]; oxyphenylbutazone 50 + compound 30 mg/kg i.p.): 20 x/30 | positive responses over number treated ([4]; oxyphenylbutazone 50 + compound 30 mg/kg i.p., 10'): 2/5 | positive responses over number treated ([4]; oxyphenylbutazone 50 + compound 30 mg/kg i.p., 20'): 3/5 | positive responses over number treated ([4]; oxyphenylbutazone 50 + compound 30 mg/kg i.p., 30'): 4/5 | positive responses over number treated ([4]; oxyphenylbutazone 50 + compound 30 mg/kg i.p., 45'): 4/5 | positive responses over number treated ([4]; oxyphenylbutazone 50 + compound 30 mg/kg i.p., 60'): 4/5 | positive responses over number treated ([4]; oxyphenylbutazone 50 + compound 30 mg/kg i.p., 90'): 3/5 | TOTAL positives ([4]; propoxyphene 10 + compound 0.3 mg/kg i.p.): 11 X/30 | positive responses over number treated ([4]; propoxyphene 10 + compound 0.3 mg/kg i.p., 10'): 2/5 | positive responses over number treated ([4]; propoxyphene 10 + compound 0.3 mg/kg i.p., 20'): 1/5 | positive responses over number treated ([4]; propoxyphene 10 + compound 0.3 mg/kg i.p., 30'): 3/5 | positive responses over number treated ([4]; propoxyphene 10 + compound 0.3 mg/kg i.p., 45'): 3/5 | positive responses over number treated ([4]; propoxyphene 10 + compound 0.3 mg/kg i.p., 60'): 2/5 | positive responses over number treated ([4]; propoxyphene 10 + compound 0.3 mg/kg i.p., 90'): 0/5 | TOTAL positives ([4]; propoxyphene 10 + compound 1 mg/kg i.p.): 19 X/30 | positive responses over number treated ([4]; propoxyphene 10 + compound 1 mg/kg i.p., 10'): 3/5 | positive responses over number treated ([4]; propoxyphene 10 + compound 1 mg/kg i.p., 20'): 4/5 | positive responses over number treated ([4]; propoxyphene 10 + compound 1 mg/kg i.p., 30'): 4/5 | positive responses over number treated ([4]; propoxyphene 10 + compound 1 mg/kg i.p., 45'): 4/5 | positive responses over number treated ([4]; propoxyphene 10 + compound 1 mg/kg i.p., 60'): 2/5 | positive responses over number treated ([4]; propoxyphene 10 + compound 1 mg/kg i.p., 90'): 2/5 | TOTAL positives ([4]; propoxyphene 10 + compound 3 mg/kg i.p.): 25 X/30 | positive responses over number treated ([4]; propoxyphene 10 + compound 3 mg/kg i.p., 10'): 3/5 | positive responses over number treated ([4]; propoxyphene 10 + compound 3 mg/kg i.p., 20'): 5/5 | positive responses over number treated ([4]; propoxyphene 10 + compound 3 mg/kg i.p., 30'): 5/5 | positive responses over number treated ([4]; propoxyphene 10 + compound 3 mg/kg i.p., 45'): 5/5 | positive responses over number treated ([4]; propoxyphene 10 + compound 3 mg/kg i.p., 60'): 4/5 | positive responses over number treated ([4]; propoxyphene 10 + compound 3 mg/kg i.p., 90'): 3/5
